In ChEMBL document CHEMBL4665653, “VU6005806/AZN-00016130, an advanced M positive allosteric modulator (PAM) profiled as a potential preclinical development candidate” (Bioorg Med Chem Lett, 2019):

Assays:
[1] = target: Estrogen receptor (Homo sapiens) (UniProt P03372); test: Displacement of [3H]estradiol from recombinant full length human recombinant ERalpha receptor expressed in Sf9 insect cells assessed as residual binding level for radioligand at 10 uM measured after 120 mins by radiometric scintillation analysis relative to contro
Rattus norvegicus [2] = test: Reversal of amphetamine-induced hyperlocomotion in po dosed rat assessed as minimum effective dose; type: functional; details: read-out: MED
[3] = target: Adenosine receptor A1 (Homo sapiens) (UniProt P30542); test: Displacement of [3H]DPCPX from recombinant full length human adenosine A1 receptor expressed in CHO-K1 cells assessed as residual binding level for radioligand at 10 uM incubated for 90 mins radiometric scintillation analysis relative to control; type: cell-based
[4] = target: 5-hydroxytryptamine receptor 2B (Homo sapiens) (UniProt P41595); test: Displacement of [3H]-LSD from recombinant full length human 5HT2B receptor expressed in CHO-K1 cells assessed as residual binding level for radioligand at 10 uM incubated for 60 mins by; type: cell-based
[5] = Plasma clearance in dog; type: ADME, Canis lupus familiaris; details: read-out: CL(app)
[6] = Volume of distribution at steady state in dog; type: ADME, Canis lupus familiaris; details: in vivo, read-out: Vdss
[7] = target: T1, Muscarinic acetylcholine receptor M4 (Homo sapiens) (UniProt P08173); test: Positive allosteric modulation of human M4 receptor/Gqi5 in presence of EC20 acetylcholine by calcium mobilization assay relative to acetylcholine; type: functional; details: filed as positive allosteric modulator
T1 sequence (whole entry): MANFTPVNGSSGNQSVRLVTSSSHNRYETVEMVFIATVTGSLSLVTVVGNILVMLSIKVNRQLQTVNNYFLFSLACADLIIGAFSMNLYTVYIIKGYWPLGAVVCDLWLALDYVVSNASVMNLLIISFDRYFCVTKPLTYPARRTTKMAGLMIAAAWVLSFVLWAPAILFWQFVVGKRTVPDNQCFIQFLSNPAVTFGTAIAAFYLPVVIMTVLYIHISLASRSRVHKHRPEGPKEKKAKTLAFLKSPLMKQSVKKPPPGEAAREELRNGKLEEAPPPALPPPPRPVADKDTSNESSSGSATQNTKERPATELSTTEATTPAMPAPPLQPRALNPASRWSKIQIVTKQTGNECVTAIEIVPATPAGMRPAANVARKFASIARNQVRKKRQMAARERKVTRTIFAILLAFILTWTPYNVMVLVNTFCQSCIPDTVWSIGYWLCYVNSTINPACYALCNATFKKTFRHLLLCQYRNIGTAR

[8] = Half life in dog; type: ADME, Canis lupus familiaris; details: in vivo
[9] = target: Beta-2 adrenergic receptor (Homo sapiens) (UniProt P07550); test: Displacement of [3H]-(-)CGP 12177 from recombinant full length human adrenergic beta 2 receptor expressed in CHO-hNBR1 cells assessed as residual binding level for radioligand at 10 uM incubated for 60 mins by radiometric scintillation analysis relative to control; type: cell-based
[10] = Fraction unbound in rat plasma; type: ADME, cell-free
[11] = target: 5-hydroxytryptamine receptor 1A (Homo sapiens) (UniProt P08908); test: Displacement of [3H]-8-OH-DPAT from full length recombinant human 5HT1A receptor expressed in CHO-K1 cells assessed as residual binding level for radioligand at 10 uM incubated for 60 mins by radiometric scintillation analysis relative to control; type: cell-based
[12] = target: Endothelin-1 receptor (Homo sapiens) (UniProt P25101); test: Displacement of [125I]endothelin-1 from recombinant full length human recombinant ETA receptor expressed in CHO-S cells assessed as residual binding level for radioligand at 10 uM measured after 120 mins by radiometric scintillation analysis relative to control; type: cell-based
[13] = target: Glucocorticoid receptor (Homo sapiens) (UniProt P04150); test: Displacement of [3H]Dexamethasone from recombinant full length human glucocorticoid receptor expressed in insect cells assessed as residual binding level for radioligand at 10 uM incubated for 1440 mins by scintillation counting analysis relative to control
[14] = target: Voltage-dependent N-type calcium channel subunit alpha-1B (Rattus norvegicus) (UniProt Q02294); test: Displacement of [125I]-w-conotoxin GIVA from N-type calcium channel Cav2.2 in Wistar rat brain membrane assessed as residual binding level for radioligand at 10 uM incubated for 30 mins by radiometric scintillation analysis relative to control; type: cell membranes
[15] = target: Gamma-aminobutyric acid type B receptor subunit 1 (Homo sapiens) (UniProt Q9UBS5); test: Displacement of [3H]CGP-54626 from human recombinant full length GABAB1 receptor expressed in CHO-K1 cells assessed as residual binding level for radioligand at 10 uM incubated for 180 mins by scintillation counting analysis relative to control; type: cell-based
[16] = target: Endothelin receptor type B (Homo sapiens) (UniProt P24530); test: Displacement of [125I]endothelin-1 from recombinant full length human recombinant ETB receptor expressed in CHO-K1 cells assessed as residual binding level for radioligand at 10 uM measured after 120 mins by radiometric scintillation analysis relative to control; type: cell-based
[17] = target: Mu-type opioid receptor (Homo sapiens) (UniProt P35372); test: Displacement of [3H]-Diprenorphine from recombinant full length human mu opioid receptor expressed in CHO-K1 cells assessed as residual binding level for radioligand at 10 uM incubated for 60 mins by scintillation counting analysis relative to control; type: cell-based
[18] = target: Histamine H3 receptor (Homo sapiens) (UniProt Q9Y5N1); test: Displacement of [3H]-N-alpha-Methylhistamine from full length recombinant human recombinant Histamine H3 receptor expressed in CHO-K1 cells assessed as residual binding level for radioligand at 10 uM incubated for 120 mins by scintillation counting analysis relative to control; type: cell-based
[19] = target: D(4) dopamine receptor (Homo sapiens) (UniProt P21917); test: Displacement of [3H]spiperone from full length recombinant human D4.4 receptor expressed in CHO cells assessed as residual binding level for radioligand at 10 uM incubated for 120 mins by radiometric scintillation analysis relative to control; type: cell-based
[20] = target: Beta-1 adrenergic receptor (Homo sapiens) (UniProt P08588); test: Displacement of [125I]Cyanopindolol from recombinant full length human beta1 adrenoceptor expressed in CHO-K1 cells assessed as residual binding level for radioligand at 10 uM after 120 mins by radiometric scintillation analysis relative to control; type: cell-based
Rattus norvegicus [21] = organism: Rattus norvegicus; test: Displacement of [3H]-Batrachotoxinin from Wistar rat sodium channel site 2 assessed as residual binding level for radioligand at 10 uM incubated for 60 mins by scintillation counting analysis relative to control; type: tissue-based; details: Brain
[22] = target: L-type calcium channel Cav1.2, dihydropyridine binding site (Rattus norvegicus, UniProt P22002); test: Displacement of [3H]-Nitrendipine from L-type calcium channel Cav1.2 dihydropyridine binding site in Wistar rat brain assessed as residual binding level for radioligand at 10 uM incubated for 90 mins by radiometric scintillation analysis relative to control; type: tissue-based; details: probe [3H]-Nitrendipine, read-out: Activity
Rattus norvegicus [23] = organism: Rattus norvegicus; test: Displacement of [3H]-Rolipram from phosphodiesterases PDE4 receptor rolipram binding site in Wistar rat brain assessed as residual binding level for radioligand at 10 uM incubated for 60 mins; type: tissue-based
[24] = target: Muscarinic acetylcholine receptor M5 (Homo sapiens, UniProt P08912); test: Positive allosteric modulation of human M5 receptor
[25] = Distribution coefficient, log D of the compound pH 7.5; type: physicochemical; details: octanol/water
Rattus norvegicus [26] = organism: Rattus norvegicus; test: Displacement of [3H]-Kainic acid from Glutamate ionotropic kainate receptor in Wistar rat brain assessed as residual binding level for radioligand at 10 uM incubated for 120 mins by scintillation counting analysis relative to control; type: tissue-based

L-type calcium channel Cav1.2, dihydropyridine binding site, sequence (P22002 whole entry): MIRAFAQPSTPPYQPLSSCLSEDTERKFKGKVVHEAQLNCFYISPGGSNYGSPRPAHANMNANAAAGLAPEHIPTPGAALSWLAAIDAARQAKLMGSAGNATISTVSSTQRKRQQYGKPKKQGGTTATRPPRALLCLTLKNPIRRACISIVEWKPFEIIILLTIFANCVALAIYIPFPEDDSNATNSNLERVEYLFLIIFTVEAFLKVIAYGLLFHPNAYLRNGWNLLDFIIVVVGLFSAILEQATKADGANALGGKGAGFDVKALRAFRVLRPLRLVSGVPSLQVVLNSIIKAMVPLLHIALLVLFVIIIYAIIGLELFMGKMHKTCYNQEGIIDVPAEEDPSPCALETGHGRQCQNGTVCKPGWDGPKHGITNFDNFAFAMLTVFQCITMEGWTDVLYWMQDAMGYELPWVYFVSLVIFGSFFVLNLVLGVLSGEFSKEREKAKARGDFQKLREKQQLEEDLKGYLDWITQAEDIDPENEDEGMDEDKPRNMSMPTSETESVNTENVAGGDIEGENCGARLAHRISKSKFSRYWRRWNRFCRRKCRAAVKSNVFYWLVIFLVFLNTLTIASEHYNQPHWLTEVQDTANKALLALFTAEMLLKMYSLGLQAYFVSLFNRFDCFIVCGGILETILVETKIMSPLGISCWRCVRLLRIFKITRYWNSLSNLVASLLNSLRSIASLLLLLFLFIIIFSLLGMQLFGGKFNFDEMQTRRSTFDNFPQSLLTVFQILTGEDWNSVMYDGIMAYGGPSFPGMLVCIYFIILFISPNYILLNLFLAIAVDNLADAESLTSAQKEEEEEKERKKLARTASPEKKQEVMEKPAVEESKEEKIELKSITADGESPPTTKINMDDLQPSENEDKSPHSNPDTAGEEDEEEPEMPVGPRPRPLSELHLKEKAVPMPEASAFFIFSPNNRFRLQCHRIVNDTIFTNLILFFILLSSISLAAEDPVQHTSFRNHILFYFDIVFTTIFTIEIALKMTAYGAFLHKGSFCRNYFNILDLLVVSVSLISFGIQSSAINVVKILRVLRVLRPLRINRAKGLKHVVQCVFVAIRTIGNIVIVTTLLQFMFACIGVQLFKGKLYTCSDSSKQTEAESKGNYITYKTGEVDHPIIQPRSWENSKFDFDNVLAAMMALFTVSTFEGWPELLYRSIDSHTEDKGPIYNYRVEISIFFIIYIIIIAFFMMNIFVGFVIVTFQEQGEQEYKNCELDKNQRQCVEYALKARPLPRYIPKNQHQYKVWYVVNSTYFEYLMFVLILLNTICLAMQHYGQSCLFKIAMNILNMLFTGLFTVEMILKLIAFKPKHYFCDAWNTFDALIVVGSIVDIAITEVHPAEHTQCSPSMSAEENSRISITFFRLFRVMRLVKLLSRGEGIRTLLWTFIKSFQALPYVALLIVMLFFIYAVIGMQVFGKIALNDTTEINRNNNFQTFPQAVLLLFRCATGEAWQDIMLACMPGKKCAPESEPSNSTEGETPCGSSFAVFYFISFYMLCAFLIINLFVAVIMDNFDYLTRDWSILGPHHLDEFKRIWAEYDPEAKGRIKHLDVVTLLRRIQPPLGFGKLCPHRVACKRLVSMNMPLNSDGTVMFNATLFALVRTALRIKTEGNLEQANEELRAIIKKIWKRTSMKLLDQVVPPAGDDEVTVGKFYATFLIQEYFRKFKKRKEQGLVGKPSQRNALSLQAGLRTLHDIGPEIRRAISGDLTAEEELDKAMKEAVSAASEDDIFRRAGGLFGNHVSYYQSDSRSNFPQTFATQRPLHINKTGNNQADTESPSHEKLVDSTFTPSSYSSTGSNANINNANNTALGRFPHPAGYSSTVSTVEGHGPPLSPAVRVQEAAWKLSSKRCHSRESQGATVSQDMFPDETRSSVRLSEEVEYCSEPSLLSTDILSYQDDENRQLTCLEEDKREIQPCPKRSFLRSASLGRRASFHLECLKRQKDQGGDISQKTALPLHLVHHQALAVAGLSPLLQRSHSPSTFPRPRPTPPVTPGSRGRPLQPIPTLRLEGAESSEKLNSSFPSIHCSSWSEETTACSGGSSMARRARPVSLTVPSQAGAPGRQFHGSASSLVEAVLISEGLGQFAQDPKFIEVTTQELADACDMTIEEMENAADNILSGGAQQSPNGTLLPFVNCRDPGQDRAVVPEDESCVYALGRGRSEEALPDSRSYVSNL
Gamma-aminobutyric acid type B receptor subunit 1 (Homo sapiens), sequence (Q9UBS5 whole entry): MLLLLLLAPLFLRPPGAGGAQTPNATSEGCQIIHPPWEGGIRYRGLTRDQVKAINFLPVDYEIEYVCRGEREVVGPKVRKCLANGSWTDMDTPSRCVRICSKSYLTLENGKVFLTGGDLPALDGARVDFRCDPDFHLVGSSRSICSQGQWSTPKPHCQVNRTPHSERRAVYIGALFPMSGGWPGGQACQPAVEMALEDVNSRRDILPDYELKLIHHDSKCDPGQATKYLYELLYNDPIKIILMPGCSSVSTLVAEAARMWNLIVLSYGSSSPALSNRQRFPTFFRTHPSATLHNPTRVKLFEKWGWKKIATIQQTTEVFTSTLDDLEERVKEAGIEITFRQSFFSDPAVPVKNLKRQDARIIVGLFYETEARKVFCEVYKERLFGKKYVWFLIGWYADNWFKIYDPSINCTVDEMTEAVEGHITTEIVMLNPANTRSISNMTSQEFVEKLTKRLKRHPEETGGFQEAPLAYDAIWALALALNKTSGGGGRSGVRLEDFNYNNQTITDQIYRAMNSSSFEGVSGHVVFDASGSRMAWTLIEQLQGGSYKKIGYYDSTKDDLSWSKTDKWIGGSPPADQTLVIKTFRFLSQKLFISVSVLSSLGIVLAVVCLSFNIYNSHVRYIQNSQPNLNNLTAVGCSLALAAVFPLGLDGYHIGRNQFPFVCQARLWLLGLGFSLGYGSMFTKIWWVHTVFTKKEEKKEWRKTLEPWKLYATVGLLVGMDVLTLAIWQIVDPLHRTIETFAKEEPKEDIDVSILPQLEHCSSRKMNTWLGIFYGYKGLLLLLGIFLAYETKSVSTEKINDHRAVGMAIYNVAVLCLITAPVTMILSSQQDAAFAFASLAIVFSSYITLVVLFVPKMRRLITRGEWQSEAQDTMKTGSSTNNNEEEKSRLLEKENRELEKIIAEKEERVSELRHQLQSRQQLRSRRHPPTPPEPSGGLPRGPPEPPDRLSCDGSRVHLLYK
Muscarinic acetylcholine receptor M5, sequence (P08912 whole entry): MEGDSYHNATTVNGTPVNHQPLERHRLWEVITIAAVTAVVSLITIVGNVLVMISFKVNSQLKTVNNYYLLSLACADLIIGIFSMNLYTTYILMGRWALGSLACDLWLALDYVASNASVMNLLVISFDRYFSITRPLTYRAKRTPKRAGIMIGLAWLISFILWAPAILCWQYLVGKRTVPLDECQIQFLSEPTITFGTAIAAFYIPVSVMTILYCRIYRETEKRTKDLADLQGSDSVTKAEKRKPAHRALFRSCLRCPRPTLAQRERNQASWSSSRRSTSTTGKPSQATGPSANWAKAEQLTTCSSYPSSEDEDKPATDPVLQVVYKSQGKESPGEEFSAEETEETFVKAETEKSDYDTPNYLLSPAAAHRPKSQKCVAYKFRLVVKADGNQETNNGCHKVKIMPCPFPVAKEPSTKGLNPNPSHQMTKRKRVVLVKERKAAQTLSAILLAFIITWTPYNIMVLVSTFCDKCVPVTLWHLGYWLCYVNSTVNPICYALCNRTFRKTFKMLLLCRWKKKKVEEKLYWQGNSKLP
5-hydroxytryptamine receptor 2B (Homo sapiens), sequence (P41595 whole entry): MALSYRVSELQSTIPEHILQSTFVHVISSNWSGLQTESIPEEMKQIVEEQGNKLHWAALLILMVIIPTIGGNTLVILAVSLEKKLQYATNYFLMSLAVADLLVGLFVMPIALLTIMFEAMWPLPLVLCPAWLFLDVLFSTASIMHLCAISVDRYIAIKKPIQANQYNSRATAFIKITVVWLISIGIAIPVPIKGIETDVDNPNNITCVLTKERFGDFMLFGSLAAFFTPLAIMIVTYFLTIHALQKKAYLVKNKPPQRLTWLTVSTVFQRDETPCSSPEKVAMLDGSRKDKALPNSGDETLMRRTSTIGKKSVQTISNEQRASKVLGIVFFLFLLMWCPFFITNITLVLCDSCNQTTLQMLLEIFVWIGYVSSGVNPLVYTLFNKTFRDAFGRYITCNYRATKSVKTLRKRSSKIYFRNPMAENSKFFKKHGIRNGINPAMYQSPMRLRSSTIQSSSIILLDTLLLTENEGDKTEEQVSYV
Endothelin-1 receptor (Homo sapiens), sequence (P25101 whole entry): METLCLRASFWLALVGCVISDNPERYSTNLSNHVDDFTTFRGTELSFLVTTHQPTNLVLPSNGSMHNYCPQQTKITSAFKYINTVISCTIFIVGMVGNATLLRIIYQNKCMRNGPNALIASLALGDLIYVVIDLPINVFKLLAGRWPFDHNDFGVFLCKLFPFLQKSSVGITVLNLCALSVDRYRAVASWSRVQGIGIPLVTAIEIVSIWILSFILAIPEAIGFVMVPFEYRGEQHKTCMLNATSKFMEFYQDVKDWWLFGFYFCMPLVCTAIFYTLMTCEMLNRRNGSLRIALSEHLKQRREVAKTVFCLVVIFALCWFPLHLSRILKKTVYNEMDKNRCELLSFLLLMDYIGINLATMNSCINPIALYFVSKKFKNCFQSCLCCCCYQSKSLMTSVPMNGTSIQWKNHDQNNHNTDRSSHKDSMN
Endothelin receptor type B (Homo sapiens), sequence (P24530 whole entry): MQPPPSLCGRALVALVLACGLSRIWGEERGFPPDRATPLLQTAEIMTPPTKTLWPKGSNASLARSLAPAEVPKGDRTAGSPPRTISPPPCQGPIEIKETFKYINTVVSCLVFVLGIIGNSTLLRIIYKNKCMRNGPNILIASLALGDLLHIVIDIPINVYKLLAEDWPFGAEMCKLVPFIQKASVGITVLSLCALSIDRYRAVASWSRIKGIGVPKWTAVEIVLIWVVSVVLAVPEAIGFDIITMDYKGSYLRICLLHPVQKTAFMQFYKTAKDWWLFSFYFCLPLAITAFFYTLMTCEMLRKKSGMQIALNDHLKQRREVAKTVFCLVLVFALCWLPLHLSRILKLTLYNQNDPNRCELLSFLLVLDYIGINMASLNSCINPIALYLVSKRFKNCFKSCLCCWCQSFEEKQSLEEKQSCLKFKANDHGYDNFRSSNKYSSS

Structure (SMILES): COc1nnc2sc(C(=O)NC3CN(c4ncc(C(F)(F)F)cn4)C3)c(N)c2c1C
- Activity [1]: > 50%
- minimal effective dose (Rattus norvegicus [2]): 0.56 mg/kg
- Activity [3]: > 50%
- Activity [4]: > 50%
- clearance [5]: 5.9 mL/min/kg
- Vd [6]: 0.57 L/kg
- %max [7]: 71%
- half-life [8]: 1 h
- Activity [9]: > 50%
- fraction unbound [10]: 0.018
- Activity [11]: > 50%
- Activity [12]: > 50%
- Activity [13]: > 50%
- Activity [14]: > 50%
- Activity [15]: > 50%
- Activity [16]: > 50%
- Activity [17]: > 50%
- Activity [18]: > 50%
- Activity [19]: > 50%
- Activity [20]: > 50%
- Activity (Rattus norvegicus [21]): > 50%
- activity at 1.5 h, 10 µM [22]: > 50%
- Activity (Rattus norvegicus [23]): > 50%
- EC50 [24]: > 30 µM
- logD [25]: 3.73
- Activity (Rattus norvegicus [26]): > 50%
